Data on 4 compounds can be found in US9642367B2, “Microbicidal composition” (Dow Global Technologies LLC, priority 2013, dated 2017).

What all share (assay type): cell-based
In test [1] the test system is Candida albicans (C. albicans, ATCC #10231). The test can be described thus: MIC / synergy evaluation in 96 well microtiter plate, yeast in Yeast Malt Extract Broth. Particulars: visual turbidity; for MIC: Candida albicans, ATCC10231, single active acting alone, read-out: Minimum Inhibitory Concentration. The source says: (§1) One measure of synergism is the industrially accepted method described by Kull, F. C.; Eisman, P. C.; Sylwestrowicz, H. D. and Mayer, R. L., in Applied Microbiology 9:538-541 (1961), using the ratio determined by the formula: Qa/QA+Qb/QB=Synergy Index (“SI”) wherein:
(§2) QA=concentration of compound A (first component) in ppm, acting alone, which produced an end point (MIC of Compound A).
(§3) Qa=concentration of compound A in ppm, in the mixture, which produced an end point.
(§4) QB=concentration of compound B (second component) in ppm, acting alone, which produced an end point (MIC of Compound B).
(§5) Qb=concentration of compound B in ppm, in the mixture, which produced an end point.
(§6) When the sum of Qa/QA and Qb/QB is greater than one, antagonism is indicated. […] The lower the SI, the greater the synergy shown by that particular mixture. The minimum inhibitory concentration (MIC) of a microbicide is the lowest concentration tested under a specific set of conditions that prevents the growth of added microorganisms. The microorganisms tested were Escherichia coli(E. coli, ATCC #8739), a yeast, Candida albicans (C. albicans, ATCC #10231) and mold, Aspergillus niger (A. niger, ATCC #16404).
(§7) MBIT synergy with a secondary biocide was determined by evaluating the minimum biocide or biocide blend concentration required to inhibit microbial growth. All studies were conducted using a 96 well microtiter plate format. For all studies, 200 μl of microbial growth media, containing various concentrations of MBIT alone, the secondary biocide alone, or combinations of both biocide chemistries, was added to individual wells of a microtiter plate. Specifically, Tryptic Soy Broth (TSB) was utilized for bacteria (E. coli, ATCC #8739), Yeast Malt Extract Broth (YMB) for yeast (Candida albicans, ATCC #10231) and Potato Dextrose Broth (PDB) for mold (Aspergillus niger, ATCC #16404). Test organisms, at a final concentration of 10^4 CFU/mL or 10^4 spores/mL, were applied to each well in parallel experiments to initiate the MIC evaluations. Growth medium containing no biocide was utilized as a control in each experimental setup to confirm the growth viability of each organism. Eight concentrations (2-fold dilutions) of each individual biocide were evaluated in the microbial growth inhibition studies in addition to the 64 possible combinations of these biocide concentrations. Evaluation of the individual biocide concentrations is required to achieve an inhibitory concentration end point for synergy index calculation. […] Individual wells were scored as growth or no growth based on visual organism growth turbidity.
(§8) These microorganisms are representative of natural contaminants in many consumer and industrial applications. […] (yeast and mold) or 30° C. (bacteria).

Test [2] deals with Escherichia coli (E. coli, ATCC #8739). The experiment in a line: MIC / synergy evaluation in 96 well microtiter plate, bacteria in Tryptic Soy Broth. Particulars: visual turbidity; for MIC: Escherichia coli, ATCC8739, single active acting alone, read-out: Minimum Inhibitory Concentration.
Text: as §1, §2, §3, §4, §5, §6, §7, §8

Test [3] concerns Aspergillus niger (A. niger, ATCC #16404). The test can be described thus: MIC / synergy evaluation in 96 well microtiter plate, mold in Potato Dextrose Broth. Particulars: ATCC16404, single active acting alone, visual turbidity, read-out: Minimum Inhibitory Concentration.
Text: as §1, §2, §3, §4, §5
When the sum of Qa/QA and Qb/QB is greater than one, antagonism is indicated. […] The lower the SI, the greater the synergy shown by that particular mixture. […]
MBIT synergy with a secondary biocide was determined by evaluating the minimum biocide or biocide blend concentration required to inhibit microbial growth. […] Eight concentrations (2-fold dilutions) of each individual biocide were evaluated in the microbial growth inhibition studies in addition to the 64 possible combinations of these biocide concentrations. […] Individual wells were scored as growth or no growth based on visual organism growth turbidity. […]

With `CC(O)C(=O)O` (stereo not shown) [Lactic acid, lactic acid], the MIC in test [1] came to 750 µg/mL; in test [2] it was 5000 µg/mL; in test [3], 40000 µg/mL.

For the compound `C=CCCCCCCCCC(=O)O` [Undecylenic acid, undecylenic acid], the results for the MIC in test [1], in test [2] and in test [3] were 7.82 µg/mL, 10000 µg/mL and 38 µg/mL, respectively.

Turning to `O=C(O)CCCCCCCC(=O)O` [Azelaic acid, azelaic acid], the MIC was determined as 188 µg/mL in test [1] and 2500 µg/mL in test [2].

With `Cn1sc2ccccc2c1=O` [MBIT, N-methyl-1,2-benzisothiazolin-3-one], the “Minimum Inhibitory Concentration” value is 1.50 ppm in test [1] (single active acting alone) and 12.50 ppm in test [2] (single active acting alone).
